Results on ten molecules are retold here after ChEMBL document CHEMBL1201862, “PubChem BioAssay data set” (2004).

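Growth conditions: 96-well plates. Treatment: test compound, 48 hours, 5 concentrations. Analysis: linear interpolation between bracketing concentrations; unreached endpoints set to highest concentration. GI50 marks 50% less growth.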 The source made the active and inactive calls. Rule as the data show it: active = GI50 up to about 1.1 µM and inactive = higher. Bounds are passed on as bounds.

Test systems include SK-MEL-2; SNB-75; T47D; HCT-15; CAKI-1; HL-60; UO-31; MDA-MB-435; RXF 393; M14; OVCAR-3; NCI-H460; KM12; MOLT-4; IGROV-1; PC-3; SK-MEL-5; NCI-H226; NCI-H522; MDA-MB-231.
Experiment in all cases: inhibition of tumour cell growth, NCI panel, 48 h

For the molecule `Nc1nc(N)c(N=Nc2ccc([As](=O)(O)O)c(O)c2)c(N)n1`, the GI50 in the assay with SK-MEL-2 is > 21.1 µM (inactive); with SNB-75 it was 11.5 µM (inactive); in the assay on T47D, > 25.2 µM (inactive); in the assay with HCT-15, 37.6 µM; with CAKI-1, 58.3 µM (inactive); with HL-60 it was 2.96 µM (inactive). Moreover, the GI50 in the assay on UO-31 was > 88.9 µM (inactive); in the assay with MDA-MB-435 it was 0.82 µM (active); in the assay on RXF 393 it was 7.48 µM (inactive); in the assay with M14 it was 35.6 µM (inactive); with OVCAR-3, 3.61 µM (inactive); in the assay on NCI-H460, 6.12 µM (inactive). The GI50 is 28.8 µM (inactive) in the assay on KM12; 3.63 µM (inactive) with MOLT-4; 4.61 µM (inactive) in the assay with IGROV-1; 22.7 µM (inactive) in the assay on PC-3; 20.3 µM (inactive) in the assay on SK-MEL-5; > 100 µM (inactive) in the assay on NCI-H226. Also, the GI50 in the assay with NCI-H522 is 3.5 µM (inactive); with MDA-MB-231, > 54.2 µM (inactive).
Turning to `O=c1[nH]c2ccccc2c(=O)c2cc3ccccc3cc12`, the GI50 in the assay on SK-MEL-2 was 22.5 µM (inactive); with SNB-75 it was 3.92 µM (inactive); with T47D, > 100 µM (inactive); with HCT-15, 74.8 µM; with CAKI-1, 16.2 µM (inactive); in the assay on HL-60, 40 µM (inactive). The GI50 in the assay on UO-31 is 35.3 µM (inactive); with MDA-MB-435, > 100 µM (inactive); in the assay on RXF 393 it was 18 µM (inactive); in the assay on M14, 45.3 µM (inactive); in the assay on OVCAR-3, 22.7 µM (inactive); with NCI-H460 it was 16.4 µM (inactive). Besides, the GI50 with KM12 is 97.3 µM (inactive); in the assay with MOLT-4, 92.9 µM (inactive); in the assay on IGROV-1, 48.2 µM (inactive); in the assay on PC-3, > 100 µM (inactive); in the assay with SK-MEL-5, 49.2 µM (inactive); with NCI-H226 it was 16.7 µM (inactive). The GI50 in the assay on NCI-H522 is 10.6 µM (inactive); in the assay with MDA-MB-231, 6.35 µM (inactive).
`CC(=O)SC(C[N+](=O)[O-])c1ccc2c(c1)OCO2` (stereo not given): the GI50 is 6.19 µM (inactive) in the assay on SK-MEL-2; 9.59 µM (inactive) with SNB-75; 17.1 µM (inactive) in the assay on T47D; 3.32 µM in the assay on HCT-15; 6.56 µM (inactive) with CAKI-1; 1.97 µM (inactive) with HL-60. Besides, the GI50 in the assay on UO-31 was 5.46 µM (inactive); in the assay on MDA-MB-435 it was 3.54 µM (inactive); with RXF 393 it was 1.9 µM (inactive); in the assay with M14, 5.9 µM (inactive); in the assay with OVCAR-3, 8.24 µM (inactive); in the assay on NCI-H460, 11.2 µM (inactive). Also, the GI50 is 4.75 µM (inactive) with KM12; 2.98 µM (inactive) with MOLT-4; 5.2 µM (inactive) with IGROV-1; 12.7 µM (inactive) with PC-3; 6.95 µM (inactive) with SK-MEL-5; 18.7 µM (inactive) in the assay with NCI-H226. Also, the GI50 was 5.22 µM (inactive) in the assay on NCI-H522 and 7.45 µM (inactive) in the assay with MDA-MB-231.
In the case of `COc1cc2c(cc1OCCCCCCCCCCN1C(=O)c3cccc4cccc(c34)C1=O)N=C[C@@H]1CCCN1C2=O`, the GI50 with SK-MEL-2 was 3.74 µM (inactive); in the assay with SNB-75 it was 4.58 µM (inactive); in the assay on T47D it was 4.41 µM (inactive); with HCT-15 it was 4.8 µM; in the assay on CAKI-1, 4.43 µM (inactive); in the assay on HL-60, 4.27 µM (inactive). For the same molecule, the GI50 with UO-31 was 7.46 µM (inactive); with MDA-MB-435 it was 4.25 µM (inactive); in the assay with RXF 393 it was 3.85 µM (inactive); with M14, 13.7 µM (inactive); in the assay with OVCAR-3, 3.73 µM (inactive); in the assay with NCI-H460 it was 19.9 µM (inactive). The GI50 was 16.1 µM (inactive) in the assay with KM12; 2.41 µM (inactive) in the assay on MOLT-4; 1.59 µM (inactive) in the assay with IGROV-1; 3.13 µM (inactive) in the assay with PC-3; 10.9 µM (inactive) in the assay on SK-MEL-5; 1.72 µM (inactive) in the assay on NCI-H226. The GI50 with NCI-H522 is 6.67 µM (inactive); in the assay with MDA-MB-231, 3.62 µM (inactive).
With `CSc1c(C#N)c(S)n(-c2ccc(Cl)cc2)c(=O)c1C#N`, the GI50 is > 100 µM (inactive) with SK-MEL-2; > 100 µM (inactive) with SNB-75; 47.5 µM (inactive) with T47D; 74.1 µM with HCT-15; > 100 µM (inactive) in the assay on CAKI-1; 52.5 µM (inactive) with HL-60. Also, the GI50 is 27.9 µM (inactive) in the assay on UO-31; > 100 µM (inactive) in the assay with MDA-MB-435; 93.3 µM (inactive) in the assay with RXF 393; > 100 µM (inactive) in the assay on M14; > 100 µM (inactive) in the assay on OVCAR-3; > 100 µM (inactive) in the assay with NCI-H460. Besides, the GI50 in the assay with KM12 was 40.2 µM (inactive); in the assay with MOLT-4 it was 44.2 µM (inactive); in the assay with IGROV-1, 80.7 µM (inactive); in the assay with PC-3 it was 76.9 µM (inactive); in the assay with SK-MEL-5, 83.9 µM (inactive); in the assay with NCI-H226 it was 48.9 µM (inactive). Also, the GI50 is 50.9 µM (inactive) in the assay on NCI-H522 and > 100 µM (inactive) in the assay on MDA-MB-231.
For the molecule `CC(NC1=CC(=O)c2ncccc2C1=O)C(O)c1ccccc1` (stereo not given), the GI50 with SK-MEL-2 is 3.55 µM (inactive); with SNB-75, 2.36 µM (inactive); in the assay on T47D, 21.5 µM (inactive); in the assay with HCT-15, 3.91 µM; with CAKI-1, 6.78 µM (inactive); in the assay on HL-60, 3.44 µM (inactive). The GI50 in the assay on UO-31 was 2.95 µM (inactive); in the assay with MDA-MB-435, 1.59 µM (inactive); in the assay with RXF 393, 7.76 µM (inactive); in the assay on M14, 2.57 µM (inactive); in the assay on OVCAR-3 it was 2.45 µM (inactive); with NCI-H460 it was 1.28 µM (inactive). Besides, the GI50 in the assay with KM12 was 7.67 µM (inactive); in the assay with MOLT-4, 8.63 µM (inactive); in the assay on IGROV-1, 3.67 µM (inactive); with PC-3, 12.1 µM (inactive); in the assay on SK-MEL-5, 1.18 µM (inactive); in the assay on NCI-H226, 5.55 µM (inactive). Further, the results for the GI50 in the assay with NCI-H522 and in the assay on MDA-MB-231 were 7.66 µM (inactive) and 2.41 µM (inactive), respectively.
With `Cc1ccc2c(c1)C(C1Cc3c(C)cccc3C1=O)OC2=O` (stereo not given), the GI50 was > 100 µM (inactive) in the assay with SK-MEL-2; 87.7 µM (inactive) in the assay with SNB-75; > 100 µM (inactive) in the assay on T47D; 89.7 µM in the assay on HCT-15; > 100 µM (inactive) in the assay with CAKI-1; > 100 µM (inactive) in the assay with HL-60. In addition, the GI50 was > 100 µM (inactive) with UO-31; > 100 µM (inactive) with MDA-MB-435; 55.3 µM (inactive) in the assay with RXF 393; > 100 µM (inactive) in the assay with M14; > 100 µM (inactive) with OVCAR-3; > 100 µM (inactive) in the assay on NCI-H460. Moreover, the GI50 in the assay on KM12 was > 100 µM (inactive); with MOLT-4, > 100 µM (inactive); in the assay with IGROV-1, > 100 µM (inactive); in the assay with PC-3, > 100 µM (inactive); with SK-MEL-5, > 100 µM (inactive); with NCI-H226, 61.5 µM (inactive). In addition, the GI50 in the assay on NCI-H522 and in the assay on MDA-MB-231 was > 100 µM (inactive) throughout.
As for `CCCn1c2ccccc2c2ccc3c(c21)C(=O)C=CC3=O`, the GI50 with SK-MEL-2 was > 4.78 µM (inactive); in the assay with SNB-75 it was > 10 µM (inactive); with T47D, 2 µM (inactive); in the assay with HCT-15 it was 2.24 µM; with CAKI-1, 2.78 µM (inactive); in the assay with HL-60, 0.938 µM (active). Besides, the GI50 is 4.06 µM (inactive) with UO-31; 2.3 µM (inactive) in the assay on MDA-MB-435; 2.1 µM (inactive) with RXF 393; 2.18 µM (inactive) with M14; 2.01 µM (inactive) in the assay with OVCAR-3; > 10 µM (inactive) in the assay with NCI-H460. In addition, the GI50 was > 10 µM (inactive) in the assay on KM12; 0.904 µM (active) with MOLT-4; 3.31 µM (inactive) with IGROV-1; 3.54 µM (inactive) with PC-3; > 7.91 µM (inactive) in the assay on SK-MEL-5; 6.38 µM (inactive) in the assay on NCI-H226. For the same molecule, the GI50 in the assay on NCI-H522 was 1.98 µM (inactive); in the assay on MDA-MB-231 it was 2.06 µM (inactive).
Regarding `COC12C=CC(C=C1C#N)CC2.COC12C=CC(CC1)CC2=O` (stereo not given), the GI50 is > 100 µM (inactive) in the assay with SK-MEL-2; 67.8 µM (inactive) in the assay with SNB-75; > 100 µM (inactive) in the assay on T47D; over 100 µM in the assay with HCT-15; > 100 µM (inactive) in the assay with CAKI-1; > 100 µM (inactive) in the assay with HL-60. The GI50 with UO-31, in the assay with MDA-MB-435, with RXF 393, in the assay with M14, in the assay with OVCAR-3 and with NCI-H460 was > 100 µM (inactive) throughout. In addition, the GI50 in the assay on KM12, in the assay on MOLT-4, with IGROV-1, in the assay with PC-3, with SK-MEL-5 and in the assay with NCI-H226 was > 100 µM (inactive) each time. For the same molecule, the GI50 with NCI-H522 and in the assay on MDA-MB-231 was > 100 µM (inactive) throughout.
For `Nc1nccc(Nc2ccc(S(N)(=O)=O)cc2)n1`, the GI50 is > 100 µM (inactive) with SK-MEL-2; > 100 µM (inactive) with SNB-75; > 100 µM (inactive) in the assay on T47D; over 100 µM with HCT-15; > 100 µM (inactive) in the assay with CAKI-1; > 100 µM (inactive) with HL-60. Further, the GI50 with UO-31, in the assay with MDA-MB-435, in the assay on RXF 393, with M14, with OVCAR-3 and in the assay on NCI-H460 was > 100 µM (inactive) each time. The GI50 with KM12 was > 100 µM (inactive); with MOLT-4, > 100 µM (inactive); in the assay with IGROV-1, > 100 µM (inactive); with PC-3, > 100 µM (inactive); in the assay with SK-MEL-5 it was > 100 µM (inactive); with NCI-H226, 35.2 µM (inactive). For the same molecule, the GI50 in the assay on NCI-H522 and with MDA-MB-231 was > 100 µM (inactive) each time.
